Reference: patent publication US20220378691A1, “Cosmetic composition comprising fermented product of Nuruk” (DAEBONG LS, LTD, priority 2021, published 2022)

Assay: Antioxidant effect: DPPH free radical scavenging test
Settings: treatment concentration 0.0005%; positive control
Method: The following assay test method was performed by applying the decrease in absorbance at 517 nm wavelength. […] After leaving the prepared sample at room temperature for 15 minutes, absorbance was measured at a wavelength of a 517 nm using a microplate reader. […] In addition, the positive control of this experimental example was prepared by mixing 1 ml of ascorbic acid (10 ppm) solution diluted in methanol and 1 ml of DPPH.

## O=C1O[C@H]([C@@H](O)CO)C(O)=C1O [Ascorbic acid, ascorbic acid]
  DPPF radical scavenging activity: 91.36 ± 0.13%
